Data published in article doi:10.64898/2025.12.27.696692v1, “A coelenterazine-dependent luciferase from the deep-sea coral Anthoptilum murrayi Kölliker, 1880 (Cnidaria: Octocorallia: Pennatulacea)” (biorxiv, 2025).

Test system: T1, AnmLuc (recombinant Anthoptilum murrayi luciferase)
T1 construct: codon-optimised, pET-28a(+), N-terminal His6 (no cleavage told); E. coli ArcticExpress (DE3), Ni-NTA
Experiment: luminometry, Michaelis-Menten nonlinear fit
Type: biochemical
Conditions: 50 mM sodium phosphate pH 7.5, 25 °C; coelenterazine 0.04–50 µM

Km: 3.39 µM
Structure (SMILES): Oc1ccc(Cc2nc3c(Cc4ccccc4)nc(-c4ccc(O)cc4)cn3c2O)cc1 [coelenterazine]
